The text below walks through data of patent publication US10155726B2, “Substituted pyridines and uses thereof” (PELOTON THERAPEUTICS, INC., priority 2015, dated 2018).

pEC50, pIC50: −log10 of the molar value. “Also recorded” adds a separate entry of the source.

One test has as its system 786-O cells. Kind of test: VEGF ELISA Assay. The test is classed as cell-based. The note with it: Homo sapiens, 786-0; VEGF concentration in culture medium of 786-O cells. As for the experimental part:
About 7500 786-O cells in 180 μL of growth medium were seeded into each well of a 96-well, white, clear bottom plate (07-200-566, Fisher Scientific) on day one in the layout presented in FIG. 3. […] Each concentration was plated in duplicate. About 20 hours later, medium was removed by suction and each well was supplied with 180 μL of growth medium. About 20 μl freshly-made 10× compound stocks were added to each well. […] The EC50 was calculated by GraphPad Prism using the dose-response-inhibition (four parameter) equation. The cell-seeded plate was then subjected to CellTiter-Glo luminescence cell viability assay (Promega) by adding 50 μL of Celltiter Glo reagent into each well and shaking the plate for 8 minutes at 550 rpm (Thermomixer R, Eppendorf) then the luminescence signal immediately read in a plate reader (3 second delay, 0.5 second/well integration time, Synergy 2 multi Detection Microplate reader).
On the technique in general: In an ELISA, binding on a coated surface is turned into a signal by an enzyme label.

For the next test, the system named is 786-O-Hif-Luc cells. In words: Luciferase Assay. The conditions noted are these: about 24 hours. In kind it is cell-based. The procedure:
786-O-Hif-Luc single clone cells were obtained by infecting 786-O cells (ATCC® CRL-1932™) with commercial lentivirus that delivers a luciferase gene driven by multiple HIF responsive elements (Cignal Lenti HIF Reporter (luc): CLS-007L, Qiagen) at Multiplicity of Infection (MOI) of 25 for 24 hours. […] A pool of infected cells were then selected against 2 μg/mL of puromycin (P8833, Sigma) for 10 days followed by limited dilution to select single clones. […] For the luciferase assay, about 7500 786-O-Hif-Luc cells in 90 μL growth medium were seeded into each well of a 96-well white opaque plate (08-771-26, Fisher scientific) a day before treatment with the layout presented in FIG. 4. […] Each concentration was tested in triplicate. After about 24 hours, luciferase activity was determined using ONE-Glo Luciferase Assay Reagent (E6110, Promega) following the manufacturer's recommended procedure. EC50 were calculated using Dotmatics software.

Test [1] has as its system HIF-2α target genes VEGF, PAI-1 and CCND1. Kind of test: PK/PD study: expression of HIF-2α regulated genes in 786-O tumor xenografts by qRT-PCR. The test is classed as in vivo, SCID/Biege mice. The note with it: 10 mg/kg oral gavage, six doses at 12 hour interval, 12 hours post last dose. As for the experimental part:
(§1) When the xenografts reached about 750 mm^3 in size, the tumor bearing mice were randomly grouped into four groups (n=3). […] All animals were sacrificed at 12 hours post last dose. Tumors and plasma were collected from each animal. Total RNA was extracted from the tumors, and the expression levels of putative HIF-2α regulated genes were determined by qRT-PCR. […] The level of human VEGFA was assessed using an ELISA assay.
A general note: Real-time PCR tracks product formation cycle by cycle.

The subject of the next test is human VEGFA. In words: PK/PD study: human VEGFA in plasma of 786-O xenograft bearing mice by ELISA. The conditions noted are these: 10 mg/kg oral gavage, six doses at 12 hour interval, 12 hours post last dose. The test is classed as in vivo, SCID/Biege mice. As for the experimental part: as §1
In general terms: In xenograft studies the graft and the host belong to different species.

In test [2] the target is T1, HIF-2α HIS TAG-PASB Domain (Homo sapiens, UniProt Q99814).
T1 construct: 100 nM HIF-2α HIS TAG-PASB Domain
Kind of test: HIF-2α Scintillation Proximity Assay (SPA). In kind it is binding. The conditions noted are these: displacement of tritiated probe from HIF-2α PAS-B domain. As for the experimental part: The total assay volume was about 100 μL in the following configuration: 2 μL compound in 100% DMSO, 88 μL buffer with protein and probe and 10 μL of SPA beads. […] The percent inhibition was determined and IC50 values were calculated using the Dotmatics system based on the following equation: % inhibition=[(high control−sample)/(high control−low control)]×100.

T1 sequence (Q99814 239-348): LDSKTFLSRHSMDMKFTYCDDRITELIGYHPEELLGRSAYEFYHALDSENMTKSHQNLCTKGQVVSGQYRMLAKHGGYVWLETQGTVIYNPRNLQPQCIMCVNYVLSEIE

`N#Cc1cc(F)cc(Oc2cnc(C(F)(F)F)c3c2[C@@H](F)[C@@H](F)[C@H]3O)c1` [Compound 22, 3-(((5R,6S,7S)-5,6-difluoro-7-hydroxy-1-(trifluoromethyl)-6,7-dihydro-5H-cyclopenta[c]pyridin-4-yl)oxy)-5-fluorobenzonitrile]: the negative logarithm of the EC50 (pEC50) with 786-O cells and in the test with 786-O-Hif-Luc cells was above 7.30 each time. Further, the “mRNA levels of HIF-2α target genes (VEGF, PAI-1, CCND1) in 786-O xenografts” value (“mRNA levels of HIF-2α target genes” below) in test [1] is reported as “decreased; also recorded: significant reduction”. In the test with human VEGFA, the “level of human VEGFA in plasma of 786-O xenograft bearing mice” value (“level of human VEGFA” below) is “decreased; also recorded: significant reduction”. This compound gave a pIC50 in test [2] above 7.30.

For `N#Cc1cncc(Oc2cnc(C(F)(F)F)c3c2[C@@H](F)[C@@H](F)[C@H]3O)c1` [Compound 34, 5-(((5R,6S,7S)-5,6-difluoro-7-hydroxy-1-(trifluoromethyl)-6,7-dihydro-5H-cyclopenta[c]pyridin-4-yl)oxy)nicotinonitrile], the pEC50 in the test on 786-O cells and with 786-O-Hif-Luc cells was 6.60 to 7.30 throughout. Further, the “mRNA levels of HIF-2α target genes” value in test [1] is listed as “decreased; also recorded: significant reduction”. Moreover, the “level of human VEGFA” value in the test with human VEGFA is “decreased; also recorded: significant reduction”. In addition, the pIC50 in test [2] was above 7.30.

`O[C@H]1c2c(C(F)(F)F)ncc(OC3CC(F)(F)C3)c2[C@@H](F)[C@H]1F` [Compound 37, (5R,6S,7S)-4-(3,3-difluorocyclobutoxy)-5,6-difluoro-1-(trifluoromethyl)-6,7-dihydro-5H-cyclopenta[c]pyridin-7-ol]: the negative logarithm of the EC50 (pEC50) in the test with 786-O cells and in the test on 786-O-Hif-Luc cells was above 7.30 each time. Also, the “mRNA levels of HIF-2α target genes” value in test [1] was “decreased; also recorded: significant reduction”. The “level of human VEGFA” value in the test on human VEGFA is “decreased; also recorded: significant reduction”. Further, the negative-log IC50 (pIC50) in test [2] is above 7.30.

A word on the pEC50: it is the negative decadic logarithm of the EC50, by convention in mol/L. What is called pIC50 is the IC50 on a negative log10 scale, so that one unit is a factor of ten. A higher pIC50 goes with a low IC50.
